According to ChEMBL document CHEMBL1201862, “PubChem BioAssay data set” (2004):
The source made the active and inactive calls.

Experiments:
[1] = target: T1, DNA repair and recombination protein RAD54-like (Homo sapiens, UniProt Q92698); experiment: RAD54 Holliday junction migration blockers – biochemical, fluorescence, cherry-picked samples, dose series, confirmation (AID 651657); assay type: functional
T1 sequence (Q92698 whole entry): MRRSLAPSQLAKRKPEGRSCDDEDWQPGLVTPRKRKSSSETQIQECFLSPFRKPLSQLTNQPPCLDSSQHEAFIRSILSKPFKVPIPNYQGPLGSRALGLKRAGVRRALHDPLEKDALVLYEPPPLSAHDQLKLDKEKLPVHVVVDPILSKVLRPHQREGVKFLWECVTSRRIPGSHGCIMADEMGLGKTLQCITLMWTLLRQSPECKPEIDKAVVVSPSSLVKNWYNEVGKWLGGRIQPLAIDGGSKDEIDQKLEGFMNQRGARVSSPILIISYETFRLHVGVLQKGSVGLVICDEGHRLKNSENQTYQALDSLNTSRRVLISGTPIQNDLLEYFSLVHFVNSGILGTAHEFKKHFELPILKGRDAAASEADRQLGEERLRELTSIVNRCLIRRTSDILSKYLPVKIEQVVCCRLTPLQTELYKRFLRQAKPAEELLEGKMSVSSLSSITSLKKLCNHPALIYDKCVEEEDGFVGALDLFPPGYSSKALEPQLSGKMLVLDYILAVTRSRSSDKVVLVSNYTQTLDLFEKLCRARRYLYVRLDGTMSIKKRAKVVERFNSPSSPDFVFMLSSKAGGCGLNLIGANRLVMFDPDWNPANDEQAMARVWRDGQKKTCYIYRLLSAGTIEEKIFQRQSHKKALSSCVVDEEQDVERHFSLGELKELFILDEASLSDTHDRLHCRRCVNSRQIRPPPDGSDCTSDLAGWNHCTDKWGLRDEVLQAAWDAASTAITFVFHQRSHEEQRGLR

[2] = target: Dual specificity tyrosine-phosphorylation-regulated kinase 1A (Rattus norvegicus, UniProt Q63470); assay type: biochemical, Homo sapiens
HEK293 = experiment: EBV LMP1 TES2 canonical NF-kB signalling blockers – cell-based, HEK293, luciferase, cherry-pick, dose response (AID 588343); assay type: functional; details: Homo sapiens
[3] = target: T2, DNA repair protein RAD52 homolog (Homo sapiens, UniProt P43351); assay type: functional, biochemical
T2 sequence (P43351 whole entry): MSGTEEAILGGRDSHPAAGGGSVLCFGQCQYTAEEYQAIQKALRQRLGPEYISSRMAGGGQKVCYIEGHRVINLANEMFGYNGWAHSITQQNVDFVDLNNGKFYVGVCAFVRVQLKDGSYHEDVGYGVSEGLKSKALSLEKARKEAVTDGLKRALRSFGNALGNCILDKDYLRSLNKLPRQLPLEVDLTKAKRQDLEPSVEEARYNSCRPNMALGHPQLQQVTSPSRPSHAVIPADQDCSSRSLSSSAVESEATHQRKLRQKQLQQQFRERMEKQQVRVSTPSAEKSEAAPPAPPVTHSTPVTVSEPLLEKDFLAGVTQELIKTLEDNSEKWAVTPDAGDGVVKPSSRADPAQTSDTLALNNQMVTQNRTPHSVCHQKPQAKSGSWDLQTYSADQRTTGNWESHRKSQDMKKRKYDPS

[4] = target: T3, Endoribonuclease toxin MazF (Escherichia coli K-12, UniProt P0AE70); experiment: substrate-only fluorescence increase artefacts – biochemical, single-stranded RNase substrate, counter-screen for MazEF activator project, dose response (AID 588502); assay type: functional
T3 sequence (P0AE70 whole entry): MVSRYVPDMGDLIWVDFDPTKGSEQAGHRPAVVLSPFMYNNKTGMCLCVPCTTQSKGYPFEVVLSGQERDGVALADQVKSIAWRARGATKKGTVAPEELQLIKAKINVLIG

[5] = target: T3, Endoribonuclease toxin MazF; experiment: activation of MazEF endoribonuclease cleavage – biochemical, fluorescence, single-stranded RNA substrate, uHTS hits, dose response (AID 588481); assay type: functional
[6] = Luminescence Cell-Based Dose Confirmation HTS to Identify Inhibitors of Platelet Dense Granule Release. [Related pubchem assays: 1663 (Primary HTS), 1678 (Summary of Project)]; assay type: functional
Cysteine protease ATG4B = Cysteine protease ATG4B (Homo sapiens, UniProt Q9Y4P1); assay type: functional;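 also: Fluorescence-based dose-response confirmation assay measuring inhibition of ATG4B activity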
Sequence of Cysteine protease ATG4B (Q9Y4P1 whole entry): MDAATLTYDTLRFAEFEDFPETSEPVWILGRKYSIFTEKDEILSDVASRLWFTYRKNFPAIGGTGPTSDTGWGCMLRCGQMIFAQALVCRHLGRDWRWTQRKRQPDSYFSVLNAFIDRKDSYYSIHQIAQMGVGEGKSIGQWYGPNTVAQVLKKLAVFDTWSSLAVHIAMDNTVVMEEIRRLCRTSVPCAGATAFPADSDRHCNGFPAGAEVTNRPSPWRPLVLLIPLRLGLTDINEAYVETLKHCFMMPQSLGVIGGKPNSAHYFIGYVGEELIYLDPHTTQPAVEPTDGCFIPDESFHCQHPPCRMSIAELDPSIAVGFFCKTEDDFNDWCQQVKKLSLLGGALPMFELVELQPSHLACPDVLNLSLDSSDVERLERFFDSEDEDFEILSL

Phospholipase A2 = Phospholipase A2 (Homo sapiens, UniProt P04054); assay type: functional;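 also: confirmatory dose-response counterscreen on phospholipase A2, testing hits that came from an ultra-high-throughput screen for ATG4B inhibitors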
Sequence of Phospholipase A2 (P04054 whole entry): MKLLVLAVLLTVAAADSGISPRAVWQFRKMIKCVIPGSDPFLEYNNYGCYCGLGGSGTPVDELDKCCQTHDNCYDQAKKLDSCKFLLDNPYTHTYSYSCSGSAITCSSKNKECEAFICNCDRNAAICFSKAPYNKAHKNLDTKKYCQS

[7] = target: Luciferin 4-monooxygenase (Photinus pyralis, UniProt P08659); experiment: inhibition of purified Photinus pyralis luciferase – biochemical, luminescence, dose response (AID 1891)
Sequence of Luciferin 4-monooxygenase (P08659 whole entry): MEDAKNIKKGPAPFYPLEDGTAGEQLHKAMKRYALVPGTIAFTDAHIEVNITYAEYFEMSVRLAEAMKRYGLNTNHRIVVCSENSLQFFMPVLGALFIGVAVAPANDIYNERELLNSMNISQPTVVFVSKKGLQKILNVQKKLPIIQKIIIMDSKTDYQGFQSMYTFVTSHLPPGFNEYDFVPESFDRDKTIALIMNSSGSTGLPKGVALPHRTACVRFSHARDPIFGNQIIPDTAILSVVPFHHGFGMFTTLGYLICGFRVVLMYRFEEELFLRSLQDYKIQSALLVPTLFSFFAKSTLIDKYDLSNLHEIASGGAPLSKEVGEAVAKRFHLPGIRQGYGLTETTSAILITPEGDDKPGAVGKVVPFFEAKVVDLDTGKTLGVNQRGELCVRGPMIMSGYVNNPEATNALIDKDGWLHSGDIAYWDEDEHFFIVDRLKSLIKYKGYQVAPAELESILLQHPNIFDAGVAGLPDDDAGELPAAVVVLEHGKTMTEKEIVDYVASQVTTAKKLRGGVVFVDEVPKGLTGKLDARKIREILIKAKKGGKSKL

## Nc1cc2ccncc2c2ccccc12
[1]
  AC50: 11.8 µM (active)
[2]
  AC50: 1.23 µM (active)
HEK293
  AC50: 9.97 µM (active)
[3]
  AC50: 14.2 µM (active)

## Cc1cc(C)c(NC(=O)Cn2nnc(C(=O)NCc3ccc4c(c3)OCO4)c2N)c(C)c1
[4]
  EC50: > 99 µM (inactive)
[5]
  EC50: > 99 µM (inactive)

## OC(CNCc1ccc(Cl)c(Cl)c1)c1ccccc1 (stereo not given)
[6]
  EC50: 19 µM (active)
Cysteine protease ATG4B
  IC50: 14.5 µM (active)
Phospholipase A2
  IC50: 9.81 µM (active)
[7]
  EC50: > 112 µM (not active)
